{"source": "patent US20080182978A1", "about": "“ANTI-NGF ANTIBODIES AND METHODS USING SAME” (RINAT NEUROSCIENCE CORP, priority 2002, published 2008)", "molecules": {"B1": {"name": "E3: humanized, affinity matured anti-NGF antagonist antibody; variable regions SEQ ID NO:1 and 2; human IgG2a (A330P331 to S330S331), kappa (antibody, V domains shown)", "VH": "QVQLQESGPGLVKPSETLSLTCTVSGFSLIGYDLNWIRQPPGKGLEWIGIIWGDGTTDYNSAVKSRVTISKDTSKNQFSLKLSSVTAADTAVYYCARGGYWYATSYYFDYWGQGTLVTVS", "VL": "DIQMTQSPSSLSASVGDRVTITCRASQSISNNLNWYQQKPGKAPKLLIYYTSRFHSGVPSRFSGSGSGTDFTFTISSLQPEDIATYYCQQEHTLPYTFGQGTKLEIKRT", "modifications": "human IgG2a constant (A330S/P331S) and kappa constant missing"}}, "system": "IL-6, IL-1β, TNF-α and TGF-β1", "assay": "CFA arthritis rats, paw cytokine levels (ELISA)", "type": "in vivo, rat", "conditions": "D24; for left paw IL-1β level / left paw IL-6 level / left paw TGF-β1 level / left paw TNF-α level / right paw IL-1β level / right paw IL-6 level / right paw TGF-β1 level / right paw TNF-α level: arthritic rats, E3 1 mg/kg or 911 10 mg/kg i.v. D14+D19, indomethacin 3 mg/kg p.o.", "description": "On Day 24 (5 days after the last i.v. bolus injection or 24 hours after the last p.o. administration) (after X-rays radiographies), each animal hindpaw (arthritic and non arthritic rats) was weighed and was collected in a labelled polyethylene vial. Tissue samples were frozen in liquid nitrogen and stored at −80° C.\nPreparation of Joint Homogenates: Frozen Hind Paws were Pulverized Using a Bio-Pulverizer. The powdered hind paws were then placed into a 50 ml conical centrifuge tube containing 3 ml PBS supplemented with 50 μl of anti-protease cocktail and homogenized on ice using Ultra-Turrax homogenizer (50% of the maximal speed). Homogenates were then centrifuged at 2000×g for 15 minutes at 4° C. and supernatants were filtered through 0.2 μm Sartorius filters, aliquoted and stored at −80° C. until use.\nCytokine levels measurement: Cytokine levels of TNF-α (Rat TNF-a ELISA kit, ref. RTA00, Batch 213718, R&D Systems, France), IL-1 Rat […] ELISA kit, ref. RLB00, Batch 212435, R&D Systems, France), IL-6 Rat IL-6 ELISA kit, ref. R6000, Batch 211773, 214008 and 214362, R&D Systems, France), and TGF-β1 Human TGF-β1 ELISA kit, ref. DB100, Batch 212258 and 213610, R&D Systems, France) were determined in duplicate, according to the manufacturer's procedure. Aliquots of hind paw homogenates were stored at −80° C.\nAll results were reported as Mean ±S.E.M. of 10 rats in each group at each time point. Paw volume was expressed in ml calculated from the mean value of the right and left paw volume. Arthritis index was calculated from the sum of the score obtained for each of the 4 paws. The nociceptive response was evaluated by the intensity of the level of vocalization recorded for each animal (mean of 4 values: 2 times/paw) in mV. The percentage inhibition of the nociceptive response was calculated from the mean value of the vehicle-treated arthritic group [(mean value of vehicle-treated arthritic group−mean value of treated arthritic group/mean value of vehicle-treated arthritic group)*100]. Body weight was expressed in grams. Hindpaws (left and right) weight was expressed in grams. Cytokine levels (IL-6, IL-1β, TNF-α and TGF-β1) of each hind paw was expressed in pg/ml. Circulating levels of TGF-β1 was expressed in pg/ml. Radiological index for each parameter (demineralization, erosions, periostal reaction, soft tissue damage, space joint, osteogenesis deformity) and total radiological index (total score) were calculated from the sum of the scores obtained for each parameter. The inter-group significances of the deviations between the values of vehicle-treated group (arthritic rats) and vehicle-treated group (non arthritic rats) were assessed by the Student t test or Mann-Whitney Rank Sum Test when equal variance or normality test failed. The inter-group significances of the deviations between the values of vehicle-treated group (arthritic rats) and E3- and 911- and Indomethacin-treated groups were assessed by the 1-way analysis of variance ANOVA followed by the non-paired Dunnett t test. A probability of P<0.05 was considered as significant. All statistical analysis was performed by the Sigmastat™ software.", "data": [{"molecule": "COc1ccc2c(c1)c(CC(=O)O)c(C)n2C(=O)c1ccc(Cl)cc1", "note": "[Indomethacin, reference compound]", "values": [{"measurement": "left paw IL-1β level", "value": "4029.1 ± 449.9", "unit": "pg/mL"}, {"measurement": "left paw IL-6 level", "value": "249.7 ± 60.4", "unit": "pg/mL"}, {"measurement": "left paw TGF-β1 level", "value": "7708.2 ± 293.9", "unit": "pg/mL"}, {"measurement": "left paw TNF-α level", "value": "29.9 ± 3.6", "unit": "pg/mL"}, {"measurement": "right paw IL-1β level", "value": "3884.4 ± 534.4", "unit": "pg/mL"}, {"measurement": "right paw IL-6 level", "value": "295.9 ± 47.8", "unit": "pg/mL"}, {"measurement": "right paw TGF-β1 level", "value": "7057.4 ± 335.6", "unit": "pg/mL"}, {"measurement": "right paw TNF-α level", "value": "30.6 ± 5.7", "unit": "pg/mL"}, {"measurement": "decrease of TGF-β1 level in right paw compared to vehicle-treated arthritic group", "setting": "indomethacin 3 mg/kg/day p.o. 10 days", "value": "about 1.3 times"}]}, {"molecule": "B1", "values": [{"measurement": "effect on IL-6, IL-1β, TNF-α or TGF-β1 levels in both paws vs vehicle-treated arthritic group", "setting": "1 mg/kg i.v. on D14 and D19", "value": "did not affect"}, {"measurement": "left paw IL-1β level", "value": "5060.0 ± 473.5", "unit": "pg/mL"}, {"measurement": "left paw IL-6 level", "value": "234.4 ± 35.2", "unit": "pg/mL"}, {"measurement": "left paw TGF-β1 level", "value": "9796.7 ± 491.2", "unit": "pg/mL"}, {"measurement": "left paw TNF-α level", "value": "23.6 ± 2.5", "unit": "pg/mL"}, {"measurement": "right paw IL-1β level", "value": "4853.5 ± 605.0", "unit": "pg/mL"}, {"measurement": "right paw IL-6 level", "value": "214.6 ± 47.2", "unit": "pg/mL"}, {"measurement": "right paw TGF-β1 level", "value": "9362.7 ± 423.4", "unit": "pg/mL"}, {"measurement": "right paw TNF-α level", "value": "21.5 ± 2.5", "unit": "pg/mL"}]}]}
